Assay results: patent publication USRE35321E, “Tetrazoleacetic acid derivatives having aldose reductase inhibitory activity” (Wakamoto Pharmaceutical Co., Ltd., priority 1990, dated 1996)

What was measured:
[1] = biological target: T1, aldose reductase (Rattus norvegicus, UniProt P07943); assay: Aldose reductase inhibitory effect (enzyme from crystalline lenses, DL-glyceraldehyde substrate); format: biochemical, rat (male SD); settings: 10 mM DL-glyceraldehyde, pH 6.2, 30° C.
T1 construct: Then their crystalline lenses were immediately removed and stored at -80° C; The lenses were homogenized; from tissue; host or cells: crystalline lenses of six-week-old male SD rats
Experimental: Six-weeks-old male SD rates were anesthetized with ether and killed. Then their crystalline lenses were immediately removed and stored at -80° C. […] All operations were conducted at 4° C. and the enzyme solution was stored at -80° C.
More specifically, 0.1 ml of DL glyceraldehyde (final concentration: 10 mM) was added to 0.9 ml of 100 mM sodium potassium phosphate buffer (pH 6.2) which contained lithium sulfate (final concentration: 400 mM), reduced nicotinamide adenine dinucleotide phosphate (final concentration: 0.15 mM), the enzyme solution, and the compound to be evaluated (final concentration: 10^-6 M, 10^-7 M or […]), and then the reaction was conducted at 30° C. for 5 minutes. During the reaction, the change in the absorbance at 340 nm with time was monitored. The maximum reducing rate of the absorbance (U) during the reaction was determined. By subtracting, from this value, the maximum reducing rate (Uo) at 340 nm of the reaction solution before the addition of the substrate (DL-glyceraldehyde), the reaction rate (V=U-Uo) was calculated as a true reaction rate in the presence of the compound to be tested.
The same procedure was repeated except for the absence of the compound to be tested. A true reaction rate (Vo) in case the enzyme was not inhibited was calculated (Vo =U'-Uo '). The aldose reductase inhibitory activity of the test compounds was determined according to the following formula:
Rate of Inhibition (%)=(Vo -V)/Vo ×100

[2] = test system: accumulation of sorbitol in sciatic nerve; assay: Inhibiting the accumulation of sorbitol in sciatic nerve of streptozotocin diabetic rats; format: in vivo, Sprague-Dawley male rats; settings: twice a day for 5 days
Experimental: Groups of 6 to 8-weeks-old Sprague-Dawley male rats (4 aminals per group) were fasted for 18 hours and streptozotocin was injected through the tail vein in a dose of 60 mg/kg to thus obtain diabetic rats. Immediately after the administration of the streptozotocin, each compound to be tested was orally administered to these rats in the form of a suspension at a dose of 10 mg/kg, 30 mg/kg and 50 mg/kg (each was suspended in a 0.5% sodium carboxymethyl cellulose solution) twice a day (9 o'clock in the morning and 5 o'clock in the afternoon) for 5 days. During the test, the rats took diet and drank water freely. 4 Hours after the final administration of the drug in the 5th day's morning (9 o'clock in the morning), the rats were sacrificed and then the sciatic nerve thereof was removed to determine the amount of sorbitol accumulated therein.
The results are expressed in the percentage obtained while the value obtained on the control to which any drug was not administered is defined to be 100.

Row | IC50 [1] [nM] | SMILES | Rate of Inhibition of Sorbitol Accumulation ([2]; 10 mg/kg oral) [%] | Rate of Inhibition of Sorbitol Accumulation ([2]; 30 mg/kg oral) [%] | Rate of Inhibition of Sorbitol Accumulation ([2]; 50 mg/kg oral) [%]
1 | 16 | O=C(O)Cn1nnnc1-c1cccs1 [Example 2-1, [5-(2-thienyl)tetrazol-1-yl] acetic acid] | 68 | 89 | 
2 | 18 | Cc1ccsc1-c1nnnn1CC(=O)O [Example 2-2, [5-(3-methyl-2-thienyl)tetrazol-1-yl] acetic acid] | 62 | 93 | 
3 | 21 | O=C(O)Cn1nnnc1-c1ccsc1 [Example 2-5, [5-(3-thienyl)tetrazol-1-yl] acetic acid] | 73 | 90 | 
4 | 30 | O=C(O)Cn1nnnc1-c1ccoc1 [Example 2-7, [5-(3-furyl)tetrazol-1-yl] acetic acid] | 46 | 77 | 
5 | 380 | COC(=O)Cn1nnnc1-c1ccsc1SC [Example 3-11, methyl [5-(2-methylthio-3-thienyl)tetrazol-1-yl] acetate] |  |  | 
6 |  | CC(/C=C1\SC(=S)N(CC(=O)O)C1=O)=C\c1ccccc1 [ONO-2235, (E)-3-carboxymethyl-5-[(2E)-methyl-3-phenylpropenylidene] rhodan, reference compound] | 0 | 0 | 40
